According to patent US12414918B2, “Pharmaceutical composition of lipid nanoparticle for delivering nucleic acid drug containing trehalose derivative and novel structure-maintaining lipid compound” (SML BIOPHARM CO., LTD., priority 2021, dated 2025):

Tested on: Renilla luciferase (R/L) expression
Experiment: Evaluation of delivery efficiency by detection of protein expression level (R/L mRNA-LNP injected intradermally into mouse ear, luminescence of ear lysate)
Type: in vivo, ICR mice
Details: ionizable lipid:trehalose-based lipid:DOPE:cholesterol (or substitute):DMG-PEG 25:25:10:38.5:1.5
Protocol: An RNA platform in which a nucleic acid sequence encoding Renilla luciferase (R/L), which has an IRES element derived from encephalomyocarditis virus (EMCV) and is a known reporter gene, was inserted as a target sequence was constructed. The template DNA was designed and the nucleic acid molecule of the single-stranded RNA platform was constructed using an IVT procedure.
Lipid nanoparticles were prepared from 0.625 mg/mL of an RNA solution (50 mM sodium citrate buffer, 110 mM NaCl, pH=4.0) and a lipid-mixture solution (ethanol) using a laboratory mixer and emulsifier (NanoAssembir Spark, Precision NanoSystems) and subjected to solvent conversion with physiological saline using a filter tube for centrifugation (UFC5010, Amicon). […]
The experiment was performed according to the following procedure. […] R/L, which was actually tested, expression, and maintenance were detected at two points of time: after 6 hours and 24 hours.
Each mouse was anesthetized using a respiratory anesthetic, and a drug that satisfied the experimental conditions was injected into the mouse through an insulin syringe. […] Then, 20 μl of the mixture was transferred to a white 96-well plate, 100 μl of Renilla luciferase assay substrate from Promega Corporation was added thereto, and luminescence was measured to compare expression.

| Structure (SMILES) | usability as cholesterol substitute in lipid nanoparticles |
| --- | --- |
| CCC(C)CCOC(=O)CC[C@H](C)[C@H]1CC[C@H]2[C@@H]3CC[C@@H]4C[C@H](O)CC[C@]4(C)[C@H]3CC[C@]12C (some centres unmarked) [Formula 5] | appropriate cholesterol substitutes |
| CCCCOC(=O)CC[C@H](C)[C@H]1CC[C@H]2[C@@H]3CC[C@@H]4C[C@H](O)CC[C@]4(C)[C@H]3CC[C@]12C [Formula 4] | appropriate cholesterol substitutes |
